We go through one compound from patent US9492471B2, “Methods of treating a disease or disorder associated with Bruton'S Tyrosine Kinase” (Celgene Avilomics Research, Inc., priority 2013, dated 2016).

Where two headings read alike, the source gives them in different places.

Experiment in all cases: HotSpot kinase profiling
Holding throughout (assay type): biochemical

The target in one experiment is T1, CDK1/cyclin B (Homo sapiens, UniProt P06493).
T1 construct: purchased Reaction Biology Corp
The method, boiled down:
(§1)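 P81 filtration radiometric readout; 2 h incubation at room temperature; 0.1% phosphoric acid wash; DMSO negative control; % inhibition, mean of replicate runs.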

In the next experiment the target is T2, IRAK4 (Homo sapiens, UniProt Q9NWZ3).
T2 construct: purchased Reaction Biology Corp
T2 sequence (Q9NWZ3 1-460): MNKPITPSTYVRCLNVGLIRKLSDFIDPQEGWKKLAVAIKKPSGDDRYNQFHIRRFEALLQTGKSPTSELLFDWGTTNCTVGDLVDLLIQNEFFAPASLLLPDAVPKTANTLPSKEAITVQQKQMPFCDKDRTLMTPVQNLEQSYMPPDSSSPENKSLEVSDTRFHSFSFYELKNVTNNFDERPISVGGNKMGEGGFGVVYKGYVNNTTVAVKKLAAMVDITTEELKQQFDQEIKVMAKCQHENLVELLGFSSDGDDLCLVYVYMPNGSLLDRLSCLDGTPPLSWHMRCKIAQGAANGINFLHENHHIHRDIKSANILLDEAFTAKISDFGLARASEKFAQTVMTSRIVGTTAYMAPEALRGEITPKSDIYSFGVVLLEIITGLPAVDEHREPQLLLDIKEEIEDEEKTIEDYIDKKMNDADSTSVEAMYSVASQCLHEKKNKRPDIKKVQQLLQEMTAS
In a few lines:
as §1

For another experiment, the target named is T3, PKD2/PRKD2 (Homo sapiens, UniProt Q9BZL6).
T3 construct: purchased Reaction Biology Corp
T3 sequence (Q9BZL6 1-878): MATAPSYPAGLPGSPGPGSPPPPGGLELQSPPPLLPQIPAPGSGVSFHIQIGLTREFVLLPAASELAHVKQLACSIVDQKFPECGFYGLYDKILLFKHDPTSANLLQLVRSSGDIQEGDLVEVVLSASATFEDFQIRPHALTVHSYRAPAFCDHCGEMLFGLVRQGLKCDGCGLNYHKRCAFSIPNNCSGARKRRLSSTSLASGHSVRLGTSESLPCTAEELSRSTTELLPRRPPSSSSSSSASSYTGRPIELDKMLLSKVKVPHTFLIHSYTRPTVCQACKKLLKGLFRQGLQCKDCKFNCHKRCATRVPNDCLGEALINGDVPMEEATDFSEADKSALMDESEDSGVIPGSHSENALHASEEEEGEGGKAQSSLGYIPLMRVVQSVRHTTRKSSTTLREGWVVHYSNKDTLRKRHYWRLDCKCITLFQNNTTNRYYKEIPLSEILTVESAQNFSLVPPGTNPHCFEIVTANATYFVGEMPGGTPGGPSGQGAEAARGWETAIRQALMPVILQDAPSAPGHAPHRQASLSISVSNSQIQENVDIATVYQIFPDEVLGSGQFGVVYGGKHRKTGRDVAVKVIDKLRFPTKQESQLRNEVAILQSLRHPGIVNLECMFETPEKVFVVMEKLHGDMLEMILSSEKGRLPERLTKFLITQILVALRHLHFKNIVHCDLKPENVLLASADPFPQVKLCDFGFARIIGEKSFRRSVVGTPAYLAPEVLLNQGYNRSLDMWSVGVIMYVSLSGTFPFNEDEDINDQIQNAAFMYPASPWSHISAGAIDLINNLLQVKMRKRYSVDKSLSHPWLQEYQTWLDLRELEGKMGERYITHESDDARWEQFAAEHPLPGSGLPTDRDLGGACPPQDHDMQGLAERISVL
In a few lines:
as §1

The next experiment deals with T4, ROS/ROS1 (Homo sapiens, UniProt P08922).
T4 construct: purchased Reaction Biology Corp
T4 sequence (P08922 28-2347): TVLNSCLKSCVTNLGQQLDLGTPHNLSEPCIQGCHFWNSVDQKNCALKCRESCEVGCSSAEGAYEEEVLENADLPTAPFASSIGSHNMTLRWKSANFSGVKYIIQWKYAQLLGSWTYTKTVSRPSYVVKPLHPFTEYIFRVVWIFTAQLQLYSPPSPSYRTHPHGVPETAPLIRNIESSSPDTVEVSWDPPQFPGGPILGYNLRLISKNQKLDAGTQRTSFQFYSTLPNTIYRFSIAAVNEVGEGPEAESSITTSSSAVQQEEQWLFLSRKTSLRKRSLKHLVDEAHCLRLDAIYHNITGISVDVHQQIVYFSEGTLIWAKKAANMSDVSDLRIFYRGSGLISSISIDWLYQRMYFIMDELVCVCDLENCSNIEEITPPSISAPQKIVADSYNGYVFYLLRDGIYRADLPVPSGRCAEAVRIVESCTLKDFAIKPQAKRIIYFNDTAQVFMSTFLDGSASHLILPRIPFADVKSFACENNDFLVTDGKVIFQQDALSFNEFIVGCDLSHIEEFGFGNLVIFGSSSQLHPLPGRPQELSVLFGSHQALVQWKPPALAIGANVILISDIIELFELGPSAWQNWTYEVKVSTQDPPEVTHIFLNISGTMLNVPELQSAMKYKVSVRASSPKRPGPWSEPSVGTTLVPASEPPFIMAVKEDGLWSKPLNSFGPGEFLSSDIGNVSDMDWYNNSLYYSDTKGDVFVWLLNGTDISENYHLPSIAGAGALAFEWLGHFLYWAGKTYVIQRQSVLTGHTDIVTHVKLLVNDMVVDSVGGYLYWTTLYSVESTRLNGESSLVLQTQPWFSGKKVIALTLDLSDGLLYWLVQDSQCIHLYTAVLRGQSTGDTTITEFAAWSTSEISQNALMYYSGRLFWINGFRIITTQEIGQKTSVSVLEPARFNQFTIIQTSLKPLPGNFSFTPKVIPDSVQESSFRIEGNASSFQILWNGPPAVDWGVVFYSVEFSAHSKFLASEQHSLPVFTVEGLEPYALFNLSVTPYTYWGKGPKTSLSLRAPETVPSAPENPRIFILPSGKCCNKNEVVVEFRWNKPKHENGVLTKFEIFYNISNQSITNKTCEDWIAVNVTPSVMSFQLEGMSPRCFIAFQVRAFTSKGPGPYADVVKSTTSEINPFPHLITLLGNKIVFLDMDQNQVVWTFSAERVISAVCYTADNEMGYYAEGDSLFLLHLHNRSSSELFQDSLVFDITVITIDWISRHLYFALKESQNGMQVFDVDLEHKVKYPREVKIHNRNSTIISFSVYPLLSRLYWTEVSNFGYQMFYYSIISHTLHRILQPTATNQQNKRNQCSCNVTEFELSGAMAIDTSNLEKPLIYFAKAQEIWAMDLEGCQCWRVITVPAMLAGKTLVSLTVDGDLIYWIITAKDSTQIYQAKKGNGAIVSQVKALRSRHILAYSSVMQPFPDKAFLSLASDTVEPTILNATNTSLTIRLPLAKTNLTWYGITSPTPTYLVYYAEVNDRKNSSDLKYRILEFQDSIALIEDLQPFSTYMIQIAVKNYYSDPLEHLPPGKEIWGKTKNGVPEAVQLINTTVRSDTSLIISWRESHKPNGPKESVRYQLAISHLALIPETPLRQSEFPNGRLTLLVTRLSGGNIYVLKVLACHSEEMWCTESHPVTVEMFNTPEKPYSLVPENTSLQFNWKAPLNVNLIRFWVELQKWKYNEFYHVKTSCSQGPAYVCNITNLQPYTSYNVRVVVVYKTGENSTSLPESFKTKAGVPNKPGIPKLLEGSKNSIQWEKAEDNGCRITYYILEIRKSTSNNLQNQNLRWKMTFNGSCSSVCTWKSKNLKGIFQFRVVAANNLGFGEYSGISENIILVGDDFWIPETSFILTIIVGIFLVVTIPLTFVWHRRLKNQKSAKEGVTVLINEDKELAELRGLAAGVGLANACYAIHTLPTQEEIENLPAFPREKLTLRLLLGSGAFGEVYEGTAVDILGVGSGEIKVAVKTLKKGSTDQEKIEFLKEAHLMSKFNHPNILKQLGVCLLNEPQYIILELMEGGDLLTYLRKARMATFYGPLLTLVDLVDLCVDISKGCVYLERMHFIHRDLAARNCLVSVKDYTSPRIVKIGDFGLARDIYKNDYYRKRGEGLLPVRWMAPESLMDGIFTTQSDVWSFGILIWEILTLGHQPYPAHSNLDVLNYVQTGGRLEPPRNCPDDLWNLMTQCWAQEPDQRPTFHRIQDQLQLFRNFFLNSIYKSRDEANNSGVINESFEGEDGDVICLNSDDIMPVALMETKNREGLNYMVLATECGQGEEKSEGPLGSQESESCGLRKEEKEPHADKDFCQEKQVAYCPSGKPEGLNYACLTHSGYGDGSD
The method, boiled down:
as §1

A further experiment has as its target T5, TIE2/TEK (Homo sapiens, UniProt Q02763).
T5 construct: purchased Reaction Biology Corp
The method, boiled down:
as §1

The next experiment deals with T6, TNIK (Homo sapiens, UniProt Q9UKE5).
T6 construct: purchased Reaction Biology Corp
T6 sequence (Q9UKE5 whole entry): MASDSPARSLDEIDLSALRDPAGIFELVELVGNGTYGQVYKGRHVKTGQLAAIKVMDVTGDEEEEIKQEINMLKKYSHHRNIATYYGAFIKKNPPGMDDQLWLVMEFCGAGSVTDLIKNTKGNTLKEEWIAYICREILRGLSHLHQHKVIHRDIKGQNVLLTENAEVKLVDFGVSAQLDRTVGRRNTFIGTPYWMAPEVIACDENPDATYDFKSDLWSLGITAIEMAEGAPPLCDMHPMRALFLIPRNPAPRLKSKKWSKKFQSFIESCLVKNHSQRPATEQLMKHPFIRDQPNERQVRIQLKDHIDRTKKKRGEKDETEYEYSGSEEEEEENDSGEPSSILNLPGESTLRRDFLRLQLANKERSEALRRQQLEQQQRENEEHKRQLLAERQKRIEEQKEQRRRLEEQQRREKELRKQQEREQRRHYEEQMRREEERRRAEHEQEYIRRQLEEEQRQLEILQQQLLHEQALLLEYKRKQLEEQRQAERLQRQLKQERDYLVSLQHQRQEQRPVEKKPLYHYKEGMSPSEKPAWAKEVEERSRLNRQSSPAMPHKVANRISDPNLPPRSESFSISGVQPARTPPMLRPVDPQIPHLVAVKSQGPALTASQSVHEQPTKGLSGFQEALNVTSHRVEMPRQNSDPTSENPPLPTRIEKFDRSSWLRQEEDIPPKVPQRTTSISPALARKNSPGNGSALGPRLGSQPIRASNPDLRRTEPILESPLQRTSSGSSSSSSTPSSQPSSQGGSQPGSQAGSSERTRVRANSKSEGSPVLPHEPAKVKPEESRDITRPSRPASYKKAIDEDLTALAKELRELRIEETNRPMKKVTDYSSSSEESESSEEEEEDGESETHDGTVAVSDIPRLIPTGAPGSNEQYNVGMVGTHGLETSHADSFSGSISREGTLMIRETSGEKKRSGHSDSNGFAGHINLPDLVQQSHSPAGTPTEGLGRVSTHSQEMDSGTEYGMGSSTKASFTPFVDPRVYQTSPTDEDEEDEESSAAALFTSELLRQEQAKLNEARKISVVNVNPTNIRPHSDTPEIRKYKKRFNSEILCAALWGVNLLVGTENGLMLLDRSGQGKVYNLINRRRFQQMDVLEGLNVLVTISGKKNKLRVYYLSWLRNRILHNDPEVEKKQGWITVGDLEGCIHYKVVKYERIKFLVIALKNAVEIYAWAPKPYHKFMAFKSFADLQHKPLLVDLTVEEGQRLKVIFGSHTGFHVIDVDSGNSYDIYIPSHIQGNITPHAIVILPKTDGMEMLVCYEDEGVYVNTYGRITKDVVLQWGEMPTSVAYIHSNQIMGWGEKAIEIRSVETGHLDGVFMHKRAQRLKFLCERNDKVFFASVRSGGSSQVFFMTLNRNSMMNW
In a few lines: as §1

The mark [1] stands for this setting: read-out: % Enzyme Activity (relative to DMSO controls) Run 1.
Where [2] appears, read: read-out: % Enzyme Activity (relative to DMSO controls) Run 2.

A word on the inhibition: it is the relative decrease from the control value, in per cent.

T5 sequence (Q02763 23-1124): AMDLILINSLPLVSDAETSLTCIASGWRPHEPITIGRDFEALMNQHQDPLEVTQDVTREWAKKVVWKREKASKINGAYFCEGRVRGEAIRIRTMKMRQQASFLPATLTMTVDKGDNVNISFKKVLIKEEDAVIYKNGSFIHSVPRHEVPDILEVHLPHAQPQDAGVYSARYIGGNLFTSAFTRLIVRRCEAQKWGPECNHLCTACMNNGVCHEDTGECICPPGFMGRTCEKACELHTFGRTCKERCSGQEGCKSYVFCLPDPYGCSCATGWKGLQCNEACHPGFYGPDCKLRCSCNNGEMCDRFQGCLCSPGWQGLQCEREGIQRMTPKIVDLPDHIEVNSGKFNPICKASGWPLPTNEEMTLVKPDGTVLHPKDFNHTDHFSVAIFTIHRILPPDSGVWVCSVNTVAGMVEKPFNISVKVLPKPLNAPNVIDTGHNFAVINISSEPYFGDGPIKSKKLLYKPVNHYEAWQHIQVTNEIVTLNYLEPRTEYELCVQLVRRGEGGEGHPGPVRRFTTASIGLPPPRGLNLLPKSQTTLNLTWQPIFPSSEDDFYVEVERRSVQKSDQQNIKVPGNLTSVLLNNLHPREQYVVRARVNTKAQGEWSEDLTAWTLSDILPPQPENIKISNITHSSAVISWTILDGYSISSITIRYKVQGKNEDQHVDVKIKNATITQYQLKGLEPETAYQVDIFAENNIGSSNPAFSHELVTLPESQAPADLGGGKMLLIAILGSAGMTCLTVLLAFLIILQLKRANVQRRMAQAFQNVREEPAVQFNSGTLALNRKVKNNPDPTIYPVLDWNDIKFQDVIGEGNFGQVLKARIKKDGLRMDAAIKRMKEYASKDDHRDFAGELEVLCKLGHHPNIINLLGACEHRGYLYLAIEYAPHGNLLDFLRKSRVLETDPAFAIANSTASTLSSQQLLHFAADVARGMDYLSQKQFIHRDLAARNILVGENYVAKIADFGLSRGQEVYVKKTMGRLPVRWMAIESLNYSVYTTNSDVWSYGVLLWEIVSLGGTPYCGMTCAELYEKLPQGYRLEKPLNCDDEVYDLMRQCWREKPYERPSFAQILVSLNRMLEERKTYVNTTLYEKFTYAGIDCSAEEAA

For the compound `C=CC(=O)Nc1cccc(Nc2nc(Nc3ccc(OCCOC)c(F)c3)ncc2F)c1` [Compound 2], the inhibition at 3 µM against CDK1/cyclin B is 12.9%; against IRAK4, 12.4%; against PKD2/PRKD2, 13.7%; on ROS/ROS1 it was 86.6%; at TIE2/TEK it was -5.21%; on TNIK it was 32.7%. In addition, the remaining activity at 3 µM at CDK1/cyclin B (setting [1]) came out at 87.2%; on CDK1/cyclin B (setting [2]) it was 87%; at IRAK4 (setting [1]), 88.6%; at IRAK4 (setting [2]) it was 86.5%; at PKD2/PRKD2 (setting [1]), 86.4%; at PKD2/PRKD2 (setting [2]), 86.2%. In addition, the remaining activity at 3 µM is 13.5% at ROS/ROS1 (setting [1]); 13.3% on ROS/ROS1 (setting [2]); 103% on TIE2/TEK (setting [1]); 108% on TIE2/TEK (setting [2]); 66.8% at TNIK (setting [1]); 67.8% on TNIK (setting [2]).
